{"source": "paper PMC3220680", "about": "“Microsecond Molecular Dynamics Simulations of Intrinsically Disordered Proteins Involved in the Oxidative Stress Response” (PLoS ONE, 2011)", "molecules": {"B1": {"name": "16-mer ProTα peptide (mouse), Ala-39 to Asp-54 (peptide)", "peptide": "AQNEENGEQEADNEVD", "notes": "Prothymosin alpha (ProTα), mouse, residues 39-54; also called Prothymosin alpha peptide; source: synthetic peptide; bought: GenScript"}}, "key": {"Kelch domain of Keap1": {"biological_target": "Kelch domain of Keap1", "conditions": "ITC; ref [79]; cited from earlier work"}, "Keap1": {"system": "Keap1", "conditions": "cited from earlier work; for competition with full-length Nrf2 for binding to Keap1: compared with 10-mer peptide (LDEETGEFLP), ref [79]"}, "[1]": {"system": "Kelch domain of mouse Keap1 (residues 324–612)", "assay": "ITC binding of mouse peptides to Kelch domain of Keap1", "procedure": "The Kelch domain (residues 324–612) of mouse Keap1 was expressed in Escherichia coli BL21 (DE3) grown in minimal M9 medium. The N-terminally His-tagged protein was purified by affinity chromatography using Ni Sepharose™ 6 Fast Flow beads (Amersham Biosciences). The tag was then cleaved by incubation with His-tagged tobacco etch virus (TEV) protease overnight at 25°C. The protein product was purified by passing the mixture through Ni Sepharose™ 6 Fast Flow beads (Amersham Biosciences).\nITC experiments were performed on a VP-ITC system (MicroCal) at 25°C. The Kelch domain was dialyzed against 50 mM phosphate buffer at pH 7, containing 100 mM NaCl and 1 mM DTT. Mouse ProTα (Ala-39 to Asp-54) and Neh2 (Leu-76 to Leu-84) peptides (GenScript) were also dissolved in the same buffer. All samples were filtered and degassed before the ITC experiments. […] Heat changes after saturation were used to account for the heat of dilution. The binding stoichiometries (n), enthalpy changes (ΔH), binding constants (Ka), Gibbs free energy changes (ΔG) and entropy changes (ΔS) were calculated using the titration data.\nSupplementary file pone.0027371.s006.tif: Figure S4 Isothermal titration calorimetry (ITC) measurements. […] (Upper) The raw data of two ITC experiments each performed at 25°C. (Lower) The integrated heat changes, corrected for the heat of dilution, and the fitted curve assuming single-site binding. (TIF) Click here for additional data file."}, "[2]": {"system": "Nrf2-targeted cytoprotective genes", "conditions": "ref [49], [50]; cited from earlier work", "source_text": "The Keap1-binding motif of ProTα (-NEENGE-) shares a similar sequence with that of the Neh2 ..."}, "[3]": {"biological_target": "Keap1 Kelch (Homo sapiens) (UniProt Q14145)", "sequence (Q14145 321-609)": "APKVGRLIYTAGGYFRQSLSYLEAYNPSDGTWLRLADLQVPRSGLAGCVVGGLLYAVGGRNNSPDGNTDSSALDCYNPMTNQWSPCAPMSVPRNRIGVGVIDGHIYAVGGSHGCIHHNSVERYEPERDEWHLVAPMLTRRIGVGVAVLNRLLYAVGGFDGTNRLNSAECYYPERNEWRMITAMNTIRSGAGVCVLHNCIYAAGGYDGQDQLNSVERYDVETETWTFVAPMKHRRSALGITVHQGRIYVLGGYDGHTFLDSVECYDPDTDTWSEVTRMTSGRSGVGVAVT", "assay": "ITC", "conditions": "cited from earlier work"}, "[4]": {"biological_target": "Keap1 Kelch (Mus musculus) (UniProt Q9Z2X8)", "sequence (Q9Z2X8 309-624)": "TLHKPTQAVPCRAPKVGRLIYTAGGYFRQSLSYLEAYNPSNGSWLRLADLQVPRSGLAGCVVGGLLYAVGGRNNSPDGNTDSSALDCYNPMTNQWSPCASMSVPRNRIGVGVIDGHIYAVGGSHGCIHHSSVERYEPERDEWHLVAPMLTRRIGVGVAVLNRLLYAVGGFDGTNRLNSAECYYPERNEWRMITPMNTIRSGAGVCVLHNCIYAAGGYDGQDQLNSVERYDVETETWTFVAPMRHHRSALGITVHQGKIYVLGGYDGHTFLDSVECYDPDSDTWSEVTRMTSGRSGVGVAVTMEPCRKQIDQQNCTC", "conditions": "cited from earlier work"}, "[5]": {"biological_target": "Keap1 Kelch (Mus musculus) (UniProt Q9Z2X8)", "assay": "ITC", "conditions": "cited from earlier work"}, "[6]": {"biological_target": "T1, Kelch domain (residues 324–612) of mouse Keap1 (mouse, UniProt Q9Z2X8 324-612)", "T1 construct": "Kelch domain of Kelch-like ECH-associated protein 1 (Keap1), mouse, residues 324-612; His tag cleaved with TEV protease; also called Kelch-like ECH-associated protein 1; source: Escherichia coli BL21 (DE3) in minimal M9 medium, purified (Ni Sepharose, TEV cleavage, second Ni Sepharose pass); not shown: His tag, N-terminal, cleaved", "T1 sequence (Q9Z2X8 324-612)": "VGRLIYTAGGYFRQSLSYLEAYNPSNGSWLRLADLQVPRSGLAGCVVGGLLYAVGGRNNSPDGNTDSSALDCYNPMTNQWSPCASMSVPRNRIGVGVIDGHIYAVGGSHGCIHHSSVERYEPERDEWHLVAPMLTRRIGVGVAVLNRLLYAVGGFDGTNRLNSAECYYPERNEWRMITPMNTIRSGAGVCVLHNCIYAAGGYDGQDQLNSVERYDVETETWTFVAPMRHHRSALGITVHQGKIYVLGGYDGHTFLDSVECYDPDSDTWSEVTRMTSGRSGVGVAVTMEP", "assay": "ITC; VP-ITC (MicroCal), 25°C; 5 µL aliquots of 0.5 mM peptide titrated into 1.4 mL of 0.05 mM Kelch in the cell; 50 mM phosphate pH 7, 100 mM NaCl, 1 mM DTT; single-site fit", "conditions": "both partners purified"}, "[7]": {"conditions": "ITC, T = 298 K, pH 7, 50 mM phosphate, 100 mM NaCl, 1 mM DTT"}}, "note": "Like-named read-outs stand apart in the source and are kept apart here.", "data": [{"molecule": "AFFAQLQLDEETGEFL", "values": [{"measurement": "Kd", "setting": "Kelch domain of Keap1", "result": "~20", "unit": "nM"}, {"measurement": "competition with full-length Nrf2 for binding to Keap1", "setting": "Keap1", "result": "could compete with full-length Nrf2 for binding to Keap1 much better than a 10-mer peptide (LDEETGEFLP)"}]}, {"molecule": "AQNEENGEQEADNEVD [16-mer ProTα peptide, Mouse ProTα (Ala-39 to Asp-54) peptide (GenScript)]", "values": [{"measurement": "relative binding to Keap1", "setting": "[1]; 16-mer ProTα vs Neh2 peptide with the same length, own ITC compared with ref [79]", "result": "interacts more weakly with Keap1 compared to the Neh2 peptide with the same length"}, {"measurement": "Ka (binding constant)", "setting": "[1]; ITC (VP-ITC), 25°C (T = 298 K), 50 mM phosphate pH 7, 100 mM NaCl, 1 mM DTT, 0.5 mM peptide titrated into 0.05 mM Kelch, single-site fit", "result": "2.4 ± 0.1 10^6 M^−1"}, {"measurement": "TΔS (entropy change upon binding)", "setting": "[1]; [7]", "result": -10.20, "unit": "kcal/mol"}, {"measurement": "ΔG (Gibbs free energy change upon binding)", "setting": "[1]; [7]", "result": "-8.70 ± 0.02", "unit": "kcal/mol"}]}, {"molecule": "LQLDEETGEFLPIQ", "values": [{"measurement": "competition with full-length Nrf2 for binding to Keap1", "setting": "Keap1", "result": "could compete with full-length Nrf2 for binding to Keap1 much better than a 10-mer peptide (LDEETGEFLP)"}]}, {"molecule": "MSDAAVDTSSEITTKDLKEKKEVVEEAENGRDAPANGNAQNEENGEQEADNEVDEEEEEGGEEEEEEEEGDGEEEDGDEDEEAEAPTGKRVAEDDEDDDVDTKKQKTEEDD [Full-length ProTα, Prothymosin alpha, full-length mouse ProTα protein, simulated]", "values": [{"measurement": "Nrf2-targeted cytoprotective genes", "setting": "[2]", "result": "upregulation of Nrf2-targeted cytoprotective genes"}, {"measurement": "competition with Nrf2 for binding to Keap1", "setting": "Keap1; ref [49], [50]", "result": "can compete with Nrf2 for binding to Keap1"}]}, {"molecule": "Nrf2 16-mer peptide 16-mer ETGE peptide (from UniProt Q16236)", "values": [{"measurement": "Kd", "setting": "[3]", "result": 20, "unit": "nM"}]}, {"molecule": "Nrf2 Neh2 (DLG motif) Neh2 (from UniProt Q60795)", "values": [{"measurement": "Kd", "setting": "[4]", "result": 500, "unit": "nM"}]}, {"molecule": "Nrf2 Neh2 (ETGE motif) Neh2 (from UniProt Q60795)", "values": [{"measurement": "Kd", "setting": "[5]", "result": 8, "unit": "nM"}]}, {"molecule": "B1", "values": [{"measurement": "Ka", "setting": "[6]", "result": "2.4e+06 ± 0.1", "unit": "M⁻¹"}, {"measurement": "dH", "setting": "[6]", "result": "-18.9 ± 0.1", "unit": "kcal/mol"}, {"measurement": "stoichiometry N", "setting": "[6]", "result": 1.03}]}]}
